In US9556153B1, “JAK1 inhibitors” (Eli Lilly and Company, priority 2015, dated 2017):

Assays:
JAK1 = JAK1 (Homo sapiens, UniProt P23458); test: JAK LanthaScreen Kinase Assay (TR-FRET), JAK1 in vitro enzyme assay; format: biochemical; details: ATP 20.0 μM; n=6
Description: JAK1, JAK2 and JAK3 In Vitro Enzyme Assays
The JAK LanthaScreen™ Kinase Assay (Invitrogen) is used to determine the ability of test compounds to inhibit JAK1, JAK2 and JAK3 kinase activity. These are TR-FRET assay formats that use long-lifetime terbium labeled antibody as the donor species and GFP-STAT1 as the acceptor species. Use the TR-FRET ratio to monitor JAK kinase activity where an increase in phosphorylation of the GFP-STAT1 results in an increase in the TR-FRET ratio. Perform the kinase reaction using a 12.5 μl reaction volume in shallow black 384-well Proxiplate. Add reagents to obtain final reaction conditions of […] HEPES pH, 1.76 mM Triton X-100, ATP (20.0 μM for JAK1 and JAK3 or 5 μM for JAK2) enzyme assays, 10.0 mM MgCl2, 1 mM EGTA and 0.01% Brij-35, 0.05 mM GFP-STAT1, 14 nM JAK1 enzyme for JAK1, 1.0 nM for JAK2 or 2.5 nM for JAK3 enzyme assays, and 4% DMSO and serial dilutions of test compound (diluted 1:3 from 20,000 to 1 nM). Following ATP/GFP-STAT1 addition, centrifuge the assay plates for 1 minute at 1000 revolutions per minute (RPM). Allow the plates to incubate at RT for 60 minutes and then add 12.5 μl of a stopping buffer containing 20 mM EDTA, 2 nM Terbium-anti-phosphorylated Signal Transducers and Activators of Transcription [phosphorylation Tyrosine 701 amino acid] […]

JAK2 = JAK2 (Homo sapiens, UniProt O60674); test: Human whole blood assay: pSTAT5 (JAK2) in monocytes; format: cell-based; set-up: endogenous in cells; host or cells: human whole blood, CD4Low CD33Hi monocytes; details: HWB, GM-CSF stimulated, CD4Low CD33Hi monocytes; n=3
Description: Human Whole Blood Assays: Determination of pSTAT3 (JAK1) and pSTAT5 (JAK2) in Lymphocytes and Monocytes
Human whole blood (HWB) assays were developed and validated to determine the JAK1 and JAK2 selectivity of test compounds.
Dilute the test compounds, 10 points, (1:3) in DMSO 100% and a step down in PBS+0.1% BSA. Use tofacitinib as a reference compound in each plate, as well as a maximum signal (stimulated wells) and a minimum signal (no stimulated wells) in order to normalize data. Obtain a pool of HWB from 4 different healthy donors. Plate the blood in a 96 well plate using a Tecan Evo 96w and incubate with test compounds for 1 h at RT. After this time of incubation, stimulate HWB with both IL6 (206-IL, R&D System) and GM-CSF (PHC2015, Life Technologies) for 15 more minutes. […]
The final concentrations in the assay are the following: 100 μM for compounds, 50 μM for tofacitinib, 0.1 μg/mL IL6, 0.038 μg/mL GM-CSF and 1% DMSO. […] Incubate the antibodies for 1 h in dark at RT, then wash cells 2× and read on Cytometer Macsquant (Miltenyi Biotec). Gate the data on CD4+(lymphocytes) and CD4Low CD33Hi (monocytes), to measure the fluorescence from cells expressing pSTAT3 and pSTAT5 respectively. Analyze the data using FlowJo v_10 and the normalize the median of fluorescence versus maximum and minimum signal to determine the IC50s. […]

JAK1, sequence (P23458 whole entry): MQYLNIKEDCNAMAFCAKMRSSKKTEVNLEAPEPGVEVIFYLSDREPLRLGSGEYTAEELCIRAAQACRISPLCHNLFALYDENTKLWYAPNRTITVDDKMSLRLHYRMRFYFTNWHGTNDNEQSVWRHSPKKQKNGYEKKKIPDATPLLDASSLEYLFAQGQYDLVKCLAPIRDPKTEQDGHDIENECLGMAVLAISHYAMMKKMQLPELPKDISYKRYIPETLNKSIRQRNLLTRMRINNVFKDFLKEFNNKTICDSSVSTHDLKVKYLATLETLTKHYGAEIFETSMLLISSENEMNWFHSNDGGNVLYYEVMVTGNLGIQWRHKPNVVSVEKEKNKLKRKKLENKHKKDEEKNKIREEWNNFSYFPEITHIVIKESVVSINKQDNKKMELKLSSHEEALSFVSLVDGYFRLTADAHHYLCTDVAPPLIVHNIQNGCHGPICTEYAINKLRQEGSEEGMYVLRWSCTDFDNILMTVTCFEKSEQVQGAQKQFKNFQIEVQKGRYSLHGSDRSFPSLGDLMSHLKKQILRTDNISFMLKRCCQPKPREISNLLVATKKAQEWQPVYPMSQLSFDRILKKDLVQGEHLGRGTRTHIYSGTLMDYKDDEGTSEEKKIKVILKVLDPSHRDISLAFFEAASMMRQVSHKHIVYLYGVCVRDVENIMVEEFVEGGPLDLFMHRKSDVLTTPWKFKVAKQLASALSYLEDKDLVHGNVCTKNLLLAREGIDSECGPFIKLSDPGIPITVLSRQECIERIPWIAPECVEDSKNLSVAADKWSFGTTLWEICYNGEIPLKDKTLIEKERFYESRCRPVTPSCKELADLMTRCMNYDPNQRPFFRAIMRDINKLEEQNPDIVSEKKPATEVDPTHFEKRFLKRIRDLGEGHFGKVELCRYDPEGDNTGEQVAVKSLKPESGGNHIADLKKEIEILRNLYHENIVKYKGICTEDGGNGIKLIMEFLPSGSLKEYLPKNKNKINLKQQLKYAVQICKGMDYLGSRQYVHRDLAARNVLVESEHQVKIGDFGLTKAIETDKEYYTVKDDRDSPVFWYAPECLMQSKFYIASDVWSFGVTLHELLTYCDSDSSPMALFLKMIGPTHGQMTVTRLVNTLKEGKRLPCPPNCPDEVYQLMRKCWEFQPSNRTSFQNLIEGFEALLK
JAK2, sequence (O60674 whole entry): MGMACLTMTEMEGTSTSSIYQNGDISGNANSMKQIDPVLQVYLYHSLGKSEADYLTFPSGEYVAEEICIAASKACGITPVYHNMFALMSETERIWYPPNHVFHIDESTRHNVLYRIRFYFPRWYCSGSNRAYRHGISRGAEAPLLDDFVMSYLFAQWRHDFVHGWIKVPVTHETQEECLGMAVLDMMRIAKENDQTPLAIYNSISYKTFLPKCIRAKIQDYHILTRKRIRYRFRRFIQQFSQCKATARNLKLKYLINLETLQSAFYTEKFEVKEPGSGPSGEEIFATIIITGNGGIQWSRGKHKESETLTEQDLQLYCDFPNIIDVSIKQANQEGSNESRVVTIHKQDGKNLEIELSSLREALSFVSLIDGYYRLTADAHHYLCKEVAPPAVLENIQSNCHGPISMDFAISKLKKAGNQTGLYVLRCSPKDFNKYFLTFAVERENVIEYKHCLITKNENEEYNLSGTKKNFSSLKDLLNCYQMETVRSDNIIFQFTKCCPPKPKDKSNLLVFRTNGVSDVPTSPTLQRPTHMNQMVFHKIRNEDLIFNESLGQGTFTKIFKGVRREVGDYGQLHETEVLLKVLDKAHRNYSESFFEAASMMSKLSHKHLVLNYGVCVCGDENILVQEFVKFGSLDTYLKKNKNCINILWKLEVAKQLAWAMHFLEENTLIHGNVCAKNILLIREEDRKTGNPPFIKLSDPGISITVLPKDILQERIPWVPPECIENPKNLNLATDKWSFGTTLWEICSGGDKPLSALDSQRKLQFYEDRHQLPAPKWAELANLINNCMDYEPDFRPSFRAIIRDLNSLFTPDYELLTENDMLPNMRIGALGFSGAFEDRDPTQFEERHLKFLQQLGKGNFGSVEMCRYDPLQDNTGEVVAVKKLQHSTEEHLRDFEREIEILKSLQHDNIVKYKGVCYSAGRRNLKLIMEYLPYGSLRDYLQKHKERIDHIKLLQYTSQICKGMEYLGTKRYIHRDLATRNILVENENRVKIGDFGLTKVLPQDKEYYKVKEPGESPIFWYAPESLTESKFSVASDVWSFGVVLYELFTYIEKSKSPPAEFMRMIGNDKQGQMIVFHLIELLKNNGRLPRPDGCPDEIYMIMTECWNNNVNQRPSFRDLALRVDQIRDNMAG

IC50 (JAK1): 0.004 ± 0.0008 µM
IC50 (JAK2): 13 ± 3.2 µM
SMILES: Cc1cc(Nc2cc(O[C@H]3CC[C@@H](NC[C@@H](O)C(F)(F)F)CC3)cc3c2ncn3C)nn1C [Example 1, (2R)-3-{[cis-4-({4-[(1,5-Dimethyl-1H-pyrazol-3-yl)amino]-1-methyl-1H-benzimidazol-6-yl}oxy)cyclohexyl]amino}-1,1,1-trifluoropropan-2-ol]
